Common to all, as to test: Post-emergence test experiment (greenhouse pot, spray at 2-3 leaf stage)
Format in all cases: in vivo
Common to all, as to conditions: 1000 g/ha; post-emergence spray at 2-3 leaf stage; assessed after 3 weeks; fresh weight inhibition rate

In one test the test system is Abutilon theophrasti. The essentials:
(§1)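 Weed seeds sown in soil-filled pots in greenhouse, sprayed at 2-3 leaf stage (2 weeks after sowing) with compound in acetone/tween-80 plus methyl oleate emulsible concentrate (1.5 L/ha) diluted in water. Fresh-weight growth inhibition scored after 3 weeks on 0-5 scale (5: >85%, 0: <5%).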

Another test deals with Digitaria sanguinalis. In outline:
as §1

For another test, the system named is Echinochloa crusgalli. In outline: as §1
A further test concerns Galium spurium. The essentials: as §1
Another test deals with Monochoria vaginalis. The essentials:
as §1

With `CC(Oc1nc(F)c(Cl)c(N)c1Cl)C(=O)OCCc1cccc2cnncc12` (stereo not drawn) [Compound 187], the “Activity level (growth inhibition rate) Abutilon theophrasti” value with Abutilon theophrasti is reported as 5 (Level 5: the growth inhibition rate is greater than 85%). Also, in the test on Digitaria sanguinalis, the “Activity level (growth inhibition rate) Digitaria sanguinalis” value is on record as 5 (Level 5: the growth inhibition rate is greater than 85%). The “Activity level (growth inhibition rate) Echinochloa crusgalli” value in the test on Echinochloa crusgalli is given as 5 (Level 5: the growth inhibition rate is greater than 85%). Moreover, the “Activity level (growth inhibition rate) Galium spurium” value with Galium spurium is recorded as 5 (Level 5: the growth inhibition rate is greater than 85%). In the test on Monochoria vaginalis, the “Activity level (growth inhibition rate) Monochoria Vaginalis” value was 5 (Level 5: the growth inhibition rate is greater than 85%).

In the case of `CC(Oc1nc(F)c(Cl)c(N)c1Cl)C(=O)SCc1ccc2nnccc2c1` (stereo not drawn) [Compound 188], in the test on Abutilon theophrasti, the “Activity level (growth inhibition rate) Abutilon theophrasti” value is recorded as 5 (Level 5: the growth inhibition rate is greater than 85%). Moreover, in the test on Digitaria sanguinalis, the “Activity level (growth inhibition rate) Digitaria sanguinalis” value is 5 (Level 5: the growth inhibition rate is greater than 85%). For the same compound, in the test on Echinochloa crusgalli, the “Activity level (growth inhibition rate) Echinochloa crusgalli” value is 5 (Level 5: the growth inhibition rate is greater than 85%). Moreover, in the test with Galium spurium, the “Activity level (growth inhibition rate) Galium spurium” value is reported as 5 (Level 5: the growth inhibition rate is greater than 85%). Further, the “Activity level (growth inhibition rate) Monochoria Vaginalis” value with Monochoria vaginalis is given as 5 (Level 5: the growth inhibition rate is greater than 85%).

`CC(Oc1nc(F)c(Cl)c(N)c1Cl)C(=O)OCc1ccc2c(c1)OCCO2` (stereo not drawn) [Compound 189]: the “Activity level (growth inhibition rate) Abutilon theophrasti” value in the test with Abutilon theophrasti was 5 (Level 5: the growth inhibition rate is greater than 85%). Also, in the test on Digitaria sanguinalis, the “Activity level (growth inhibition rate) Digitaria sanguinalis” value is reported as 5 (Level 5: the growth inhibition rate is greater than 85%). Further, the “Activity level (growth inhibition rate) Echinochloa crusgalli” value in the test with Echinochloa crusgalli is 5 (Level 5: the growth inhibition rate is greater than 85%). In addition, in the test on Galium spurium, the “Activity level (growth inhibition rate) Galium spurium” value was 5 (Level 5: the growth inhibition rate is greater than 85%). Also, the “Activity level (growth inhibition rate) Monochoria Vaginalis” value in the test with Monochoria vaginalis was 5 (Level 5: the growth inhibition rate is greater than 85%).

Consider `CNc1c(Cl)c(F)nc(OC(C)C(=O)OCc2ccccc2)c1Cl` (stereo not drawn) [Compound 190], for which the “Activity level (growth inhibition rate) Abutilon theophrasti” value in the test on Abutilon theophrasti is reported as 5 (Level 5: the growth inhibition rate is greater than 85%). In addition, the “Activity level (growth inhibition rate) Digitaria sanguinalis” value in the test on Digitaria sanguinalis is recorded as 5 (Level 5: the growth inhibition rate is greater than 85%). The “Activity level (growth inhibition rate) Echinochloa crusgalli” value in the test with Echinochloa crusgalli is 5 (Level 5: the growth inhibition rate is greater than 85%). Further, the “Activity level (growth inhibition rate) Galium spurium” value in the test with Galium spurium was 5 (Level 5: the growth inhibition rate is greater than 85%). Also, the “Activity level (growth inhibition rate) Monochoria Vaginalis” value in the test on Monochoria vaginalis is 5 (Level 5: the growth inhibition rate is greater than 85%).

Consider `CCNc1c(Cl)c(F)nc(OC(C)C(=O)SCc2ccccc2)c1Cl` (stereo not drawn) [Compound 191], for which, in the test with Abutilon theophrasti, the “Activity level (growth inhibition rate) Abutilon theophrasti” value is 5 (Level 5: the growth inhibition rate is greater than 85%). In the test with Digitaria sanguinalis, the “Activity level (growth inhibition rate) Digitaria sanguinalis” value is given as 5 (Level 5: the growth inhibition rate is greater than 85%). The “Activity level (growth inhibition rate) Echinochloa crusgalli” value with Echinochloa crusgalli was 5 (Level 5: the growth inhibition rate is greater than 85%). Also, the “Activity level (growth inhibition rate) Galium spurium” value in the test on Galium spurium is on record as 5 (Level 5: the growth inhibition rate is greater than 85%). Besides, in the test on Monochoria vaginalis, the “Activity level (growth inhibition rate) Monochoria Vaginalis” value is reported as 5 (Level 5: the growth inhibition rate is greater than 85%).

As for `CC(=O)Nc1c(Cl)c(F)nc(OC(C)C(=O)OCc2ccccc2)c1Cl` (stereo not drawn) [Compound 192], the “Activity level (growth inhibition rate) Abutilon theophrasti” value in the test on Abutilon theophrasti is 5 (Level 5: the growth inhibition rate is greater than 85%). For the same compound, the “Activity level (growth inhibition rate) Digitaria sanguinalis” value in the test with Digitaria sanguinalis is reported as 5 (Level 5: the growth inhibition rate is greater than 85%). In addition, the “Activity level (growth inhibition rate) Echinochloa crusgalli” value in the test on Echinochloa crusgalli was 5 (Level 5: the growth inhibition rate is greater than 85%). Further, the “Activity level (growth inhibition rate) Galium spurium” value in the test with Galium spurium is given as 5 (Level 5: the growth inhibition rate is greater than 85%). In addition, in the test on Monochoria vaginalis, the “Activity level (growth inhibition rate) Monochoria Vaginalis” value was 5 (Level 5: the growth inhibition rate is greater than 85%).

Values taken from patent publication US12049450B2, “Pyridyloxy-carboxylate derivative and preparation method therefor, herbicidal composition, and use” (Qingdao Kingagroot Chemical Compound Co., Ltd., priority 2018, dated 2024).
